Activity calls are given as the source filed them. No cut-off for these calls is given here.

Assay [1] has as its target T1, Endoplasmic reticulum aminopeptidase 1 (Homo sapiens, UniProt Q9NZ08). The assay is described as follows: Inhibition of human ERAP1 expressed in African green monkey COS7 cells using aminoacyl-4-methylcoumaryl-7-amide as substrate after 15 mins by spectrofluorophotometric method.
Assay [2] has as its target T1, Endoplasmic reticulum aminopeptidase 1. The assay is described as follows: Inhibition of recombinant ERAP1 (unknown origin) expressed in baculovirus infected Hi5 cells using L-leucine 7-amido-4-methyl coumarin as substrate up to 30 uM by fluorescence microplate reader method.
Assay [3] has as its system BMDC. The assay is described as follows: Inhibition of ovalbumin cross presentation to OT-I Rag1-/-mouse CD8+ T cells in C57Bl/6 JRj mouse ERAP-/- BMDC assessed as increase in IL-2 secretion from CD8+ T cells at 0.01 to 10 uM preincubated for 90 mins followed by 3 to 18 hrs incubation in presence of ovalbumin by sandwich ELISA method. It counts as functional, cell-based.

The subject of assay [4] is BMDC. The assay is described as follows: Inhibition of ovalbumin cross presentation to OT-I Rag1-/-mouse CD8+ T cells in C57Bl/6 JRj mouse ERAP+/+ BMDC assessed as increase in IL-2 secretion from CD8+ T cells at 0.01 to 10 uM preincubated for 90 mins followed by 3 to 18 hrs incubation in presence of ovalbumin by sandwich ELISA method. It counts as functional, cell-based. Background: In an ELISA, binding on a coated surface is turned into a signal by an enzyme label.

T1 sequence (Q9NZ08 whole entry): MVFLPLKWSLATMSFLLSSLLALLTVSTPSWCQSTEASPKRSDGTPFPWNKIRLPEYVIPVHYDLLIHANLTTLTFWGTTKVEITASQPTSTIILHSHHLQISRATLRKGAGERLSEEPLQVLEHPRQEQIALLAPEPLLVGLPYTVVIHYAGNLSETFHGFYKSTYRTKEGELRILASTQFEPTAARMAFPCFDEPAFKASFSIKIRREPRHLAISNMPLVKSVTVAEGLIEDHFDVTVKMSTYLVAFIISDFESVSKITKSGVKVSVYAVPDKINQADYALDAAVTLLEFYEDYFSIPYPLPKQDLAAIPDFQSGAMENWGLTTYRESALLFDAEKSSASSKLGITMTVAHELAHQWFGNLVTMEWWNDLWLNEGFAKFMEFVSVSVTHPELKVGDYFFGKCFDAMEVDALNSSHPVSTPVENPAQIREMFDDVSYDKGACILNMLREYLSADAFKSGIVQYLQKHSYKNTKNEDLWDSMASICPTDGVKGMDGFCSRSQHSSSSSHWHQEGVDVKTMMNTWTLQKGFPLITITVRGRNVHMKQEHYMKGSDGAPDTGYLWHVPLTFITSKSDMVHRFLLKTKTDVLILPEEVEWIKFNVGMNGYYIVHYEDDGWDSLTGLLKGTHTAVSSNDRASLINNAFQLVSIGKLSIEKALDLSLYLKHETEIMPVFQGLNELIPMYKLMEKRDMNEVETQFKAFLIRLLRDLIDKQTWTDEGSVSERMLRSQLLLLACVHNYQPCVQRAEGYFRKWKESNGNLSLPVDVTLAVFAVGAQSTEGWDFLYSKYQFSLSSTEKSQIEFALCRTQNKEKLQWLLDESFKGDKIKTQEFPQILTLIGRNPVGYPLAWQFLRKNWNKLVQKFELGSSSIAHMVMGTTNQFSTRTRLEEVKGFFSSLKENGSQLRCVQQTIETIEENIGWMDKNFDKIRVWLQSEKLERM

As usually defined, the IC50 is the concentration needed to halve the response being measured. Turning to `CC(C)C[C@H](NC(=O)[C@@H](O)[C@H](N)Cc1ccccc1)C(=O)O` [UBENIMEX], the IC50 in assay [1] is 50 to 100 µM.
For `O=C(O)c1ccccc1S`, the inhibition entry in assay [2], in assay [3] and in assay [4] was “inactive” in each case.

The values are drawn from ChEMBL document CHEMBL4425167, “Screening Identifies Thimerosal as a Selective Inhibitor of Endoplasmic Reticulum Aminopeptidase 1” (ACS Med Chem Lett, 2016).
